Laboratory results from US10722501B2 (BAYER AKTIENGESELLSCHAFT, priority 2016, dated 2020).

Each compound was assayed against T1, recombinant full-length human prolyl endopeptidase (PREP) (Homo sapiens, UniProt P48147) (assay: Biochemical human prolyl endopeptidase (PREP) assay with fluorescently labelled substrate). Details: substrate Z-Gly-Pro-AMC 50 μM, 32° C., 60 min; some as mean values from multiple independent determinations.
T1 construct: To recombinant full-length human prolyl endopeptidase (PREP, R&D-Systems, 4308-SE); purchased R&D-Systems 4308-SE
T1 sequence (P48147 1-710): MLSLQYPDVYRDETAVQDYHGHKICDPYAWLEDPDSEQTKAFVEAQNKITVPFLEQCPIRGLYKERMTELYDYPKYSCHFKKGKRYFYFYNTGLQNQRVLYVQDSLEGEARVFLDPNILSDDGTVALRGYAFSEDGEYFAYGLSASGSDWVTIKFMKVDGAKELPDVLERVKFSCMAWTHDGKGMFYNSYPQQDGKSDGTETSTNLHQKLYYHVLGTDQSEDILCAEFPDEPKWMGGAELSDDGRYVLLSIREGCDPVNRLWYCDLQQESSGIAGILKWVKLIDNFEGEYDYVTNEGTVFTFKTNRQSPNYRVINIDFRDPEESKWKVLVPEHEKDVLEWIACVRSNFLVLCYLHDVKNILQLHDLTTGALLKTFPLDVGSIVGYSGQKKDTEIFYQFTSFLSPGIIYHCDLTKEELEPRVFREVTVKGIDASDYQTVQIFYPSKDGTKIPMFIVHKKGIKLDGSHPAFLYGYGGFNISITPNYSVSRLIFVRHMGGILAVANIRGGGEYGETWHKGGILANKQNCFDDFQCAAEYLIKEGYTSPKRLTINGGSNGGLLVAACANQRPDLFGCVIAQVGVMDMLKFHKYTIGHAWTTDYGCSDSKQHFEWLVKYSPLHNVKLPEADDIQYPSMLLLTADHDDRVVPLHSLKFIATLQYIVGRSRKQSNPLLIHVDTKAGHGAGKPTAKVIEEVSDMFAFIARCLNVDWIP
In short: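 Initial rates of fluorescence increase from 50 μM Z-Gly-Pro-AMC cleavage (ex 360/em 465 nm, 60 min, 32° C) give percent PREP activity versus no-compound control, and IC50 is interpolated. Enzyme used at 0.4 nM (final, example) in Tris pH 7.5 with EDTA, GSH, BSA and Brij-35; compounds span 1 nM to 30 μM.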

SMILES | IC50
O=C(C1C(C(F)(F)F)CCc2nn(Cc3ncc(Cl)cc3Cl)c(=O)n21)N1CC(F)C1 (racemic) [Example 306, (5RS,6RS)-2-[(3,5-Dichloropyridin-2-yl)methyl]-5-[(3-fluoroazetidin-1-yl)carbonyl]-6-(trifluoromethyl)-5,6,7,8-tetrahydro[1,2,4]triazolo[4,3-a]pyridin-3(2H)-one] | 215 nM
O=C([C@@H]1CCCc2nn(CC3(c4ccc(F)cc4F)CC3)c(=O)n21)N1CC[C@H](F)C1 [Example 358] | 0.068 nM
Cc1ccc(Cn2nc3n(c2=O)[C@H](C(=O)N2C[C@@H](F)[C@@H](F)C2)CCC3)cc1 [Example 150, (5S)-5-{[cis-3,4-Difluoropyrrolidin-1-yl]carbonyl}-2-(4-methylbenzyl)-5,6,7,8-tetrahydro[1,2,4]triazolo[4,3-a]pyridin-3(2H)-one] | 0.58 nM
CC1CCC(C(=O)N2CC[C@H](F)C2)n2c1nn(Cc1ccc(C(F)(F)F)nc1)c2=O (single isomer, unassigned) [Example 222] | 1.1 nM
O=C([C@@H]1CCCc2nn(Cc3ccc(Cl)nc3)c(=O)n21)N1CCC2CC21 (single isomer, unassigned) [Example 198] | 1.03 nM
O=C([C@@H]1CCCc2nn(Cc3cc(C(F)(F)F)c(Cl)cn3)c(=O)n21)N1C[C@@H](F)[C@@H](F)C1 [Example 372, (5S)-2-{[5-Chloro-4-(trifluoromethyl)pyridin-2-yl]methyl}-5-{[(3R,4S)-3,4-difluoropyrrolidin-1-yl]carbonyl}-5,6,7,8-tetrahydro[1,2,4]triazolo[4,3-a]pyridin-3(2H)-one] | 1.3 nM
O=C([C@@H]1CCCc2nn(Cc3ccc(F)c(Cl)c3)c(=O)n21)N1CCC2CC21 (single isomer, unassigned) [Example 203] | 0.82 nM
Cc1ccc(Cn2nc3n(c2=O)C(C(=O)N2CCCC2)CC(C)C3)cc1 (racemic) [Example 224, (5RS,7RS)-7-Methyl-2-(4-methylbenzyl)-5-(pyrrolidin-1-ylcarbonyl)-5,6,7,8-tetrahydro[1,2,4]triazolo[4,3-a]pyridin-3(2H)-one] | 0.56 nM
O=C(C1CCc2nn(Cc3ccnc(C(F)(F)F)c3F)c(=O)n21)N1C[C@@H](F)[C@@H](F)C1 (mixture of isomers) [Example 175, (5RS)-5-{[(3R,4S)-3,4-Difluoropyrrolidin-1-yl]carbonyl}-2-{[3-fluoro-2-(trifluoromethyl)pyridin-4-yl]methyl}-2,5,6,7-tetrahydro-3H-pyrrolo[2,1-c][1,2,4]triazol-3-one] | 7 nM
O=C(C1CCCc2nn(Cc3ccc(Cl)c(C(F)(F)F)c3)c(=O)n21)N1CCC(F)(F)C1 (racemic) [Example 43] | 1.9 nM
O=C(C1CCc2nn(Cc3ccc(F)c(Cl)c3)c(=O)n21)N1CC[C@H](F)C1 (mixture of isomers) [Example 165, (5RS)-2-(3-Chloro-4-fluorobenzyl)-5-{[(3S)-3-fluoropyrrolidin-1-yl]carbonyl}-2,5,6,7-tetrahydro-3H-pyrrolo[2,1-c][1,2,4]triazol-3-one] | 0.89 nM
O=C(C1CC(C(F)(F)F)Cc2nn(Cc3ccc(Cl)nc3)c(=O)n21)N1CC[C@H](F)C1 (mixture of isomers) [Example 241, (5RS,7RS)-2-[(6-Chloropyridin-3-yl)methyl]-5-{[(3S)-3-fluoropyrrolidin-1-yl]carbonyl}-7-(trifluoromethyl)-5,6,7,8-tetrahydro[1,2,4]triazolo[4,3-a]pyridin-3(2H)-one] | 5.8 nM
O=C(C1CCc2nn(Cc3ccnc(C(F)(F)F)c3F)c(=O)n21)N1CCC(F)(F)C1 (racemic) [Example 181, (5RS)-5-[(3,3-Difluoropyrrolidin-1-yl)carbonyl]-2-{[3-fluoro-2-(trifluoromethyl)pyridin-4-yl]methyl}-2,5,6,7-tetrahydro-3H-pyrrolo[2,1-c][1,2,4]triazol-3-one] | 24.8 nM
COc1ccc(Cn2nc3n(c2=O)[C@H](C(=O)N2CCC[C@H]2C#N)CCC3)cn1 [Example 432, (2S)-1-({(5S)-2-[(6-Methoxypyridin-3-yl)methyl]-3-oxo-2,3,5,6,7,8-hexahydro[1,2,4]triazolo[4,3-a]pyridin-5-yl}carbonyl)pyrrolidine-2-carbonitrile] | 0.13 nM
O=C(C1CC(C(F)(F)F)Cc2nn(Cc3cncc(Cl)c3)c(=O)n21)N1CC[C@H](F)C1 (mixture of isomers) [Example 316, (5RS,7RS)-2-[(5-Chloropyridin-3-yl)methyl]-5-{[(3S)-3-fluoropyrrolidin-1-yl]carbonyl}-7-(trifluoromethyl)-5,6,7,8-tetrahydro[1,2,4]triazolo[4,3-a]pyridin-3(2H)-one] | 2.6 nM
O=C([C@@H]1CCCc2nn(Cc3nnc(C(F)(F)F)o3)c(=O)n21)N1CC[C@H](F)C1 [Example 544, (5S)-5-{[(3S)-3-Fluoropyrrolidin-1-yl]carbonyl}-2-{[5-(trifluoromethyl)-1,3,4-oxadiazol-2-yl]methyl}-5,6,7,8-tetrahydro[1,2,4]triazolo[4,3-a]pyridin-3(2H)-one] | 4.4 nM
COc1ccc(C2(Cn3nc4n(c3=O)[C@H](C(=O)N3CC[C@H](F)C3)CCC4)CC2)cc1 [Example 528, (5S)-5-{[(3S)-3-Fluoropyrrolidin-1-yl]carbonyl}-2-{[1-(4-methoxyphenyl)cyclopropyl]methyl}-5,6,7,8-tetrahydro[1,2,4]triazolo[4,3-a]pyridin-3(2H)-one] | 0.72 nM
O=C([C@@H]1CCC(O)c2nn(Cc3ccc(C(F)(F)F)nc3)c(=O)n21)N1CC[C@H](F)C1 (mixture of isomers) [Example 275, (5S,8RS)-5-{[(3S)-3-Fluoropyrrolidin-1-yl]carbonyl}-8-hydroxy-2-{[6-(trifluoromethyl)pyridin-3-yl]methyl}-5,6,7,8-tetrahydro[1,2,4]triazolo[4,3-a]pyridin-3(2H)-one] | 1.15 nM
O=C([C@@H]1CCCc2nn(CC3(c4cccc(Cl)n4)CC3)c(=O)n21)N1CC(F)C1 [Example 348, (5S)-2-{[1-(6-Chloropyridin-2-yl)cyclopropyl]methyl}-5-[(3-fluoroazetidin-1-yl)carbonyl]-5,6,7,8-tetrahydro[1,2,4]triazolo[4,3-a]pyridin-3(2H)-one] | 3.8 nM
Cc1ccc(Cn2nc3n(c2=O)C(C(=O)N2CCCC2)CC(C(F)(F)F)C3)cc1 (single isomer, unassigned) [Example 225, (5RS,7RS)-2-(4-Methylbenzyl)-5-(pyrrolidin-1-ylcarbonyl)-7-(trifluoromethyl)-5,6,7,8-tetrahydro[1,2,4]triazolo[4,3-a]pyridin-3(2H)-one] | 0.23 nM
CCn1nc(C(F)(F)F)cc1Cn1nc2n(c1=O)[C@H](C(=O)N1C[C@@H](F)[C@@H](F)C1)CCC2 [Example 361, (5S)-5-{[(3R,4S)-3,4-Difluoropyrrolidin-1-yl]carbonyl}-2-{[1-ethyl-3-(trifluoromethyl)-1H-pyrazol-5-yl]methyl}-5,6,7,8-tetrahydro[1,2,4]triazolo[4,3-a]pyridin-3(2H)-one] | 1.2 nM
O=C(C1CC(C(F)(F)F)Cc2nn(Cc3ccc(Cl)nc3)c(=O)n21)N1CC[C@@H](F)C1 (single isomer, unassigned) [Example 246] | 1.3 nM
Cc1ccc(C2(Cn3nc4n(c3=O)[C@H](C(=O)N3CC(O)C3)CCC4)CC2)cc1 [Example 354, (5S)-5-[(3-Hydroxyazetidin-1-yl)carbonyl]-2-{[1-(4-methylphenyl)cyclopropyl]methyl}-5,6,7,8-tetrahydro[1,2,4]triazolo[4,3-a]pyridin-3(2H)-one] | 19 nM
O=C([C@@H]1CCc2nn(Cc3ccc(Cl)nc3)c(=O)n21)N1CCCC1 [Example 52, (5S)-2-[(6-Chloropyridin-3-yl)methyl]-5-(pyrrolidin-1-ylcarbonyl)-2,5,6,7-tetrahydro-3H-pyrrolo[2,1-c][1,2,4]triazol-3-one] | 4.6 nM
O=C([C@@H]1CCCc2nn(Cc3cncc(C(F)(F)F)c3)c(=O)n21)N1CCC(F)(F)C1 [Example 579, (5S)-5-[(3,3-Difluoropyrrolidin-1-yl)carbonyl]-2-{[5-(trifluoromethyl)pyridin-3-yl]methyl}-5,6,7,8-tetrahydro[1,2,4]triazolo[4,3-a]pyridin-3(2H)-one] | 1.1 nM
O=C(C1CC(C(F)(F)F)Cc2nn(Cc3ncc(F)cc3Cl)c(=O)n21)N1CCC(F)(F)C1 (single isomer, unassigned) [Example 576, (5RS,7RS)-2-[(3-Chloro-5-fluoropyridin-2-yl)methyl]-5-[(3,3-difluoropyrrolidin-1-yl)carbonyl]-7-(trifluoromethyl)-5,6,7,8-tetrahydro[1,2,4]triazolo[4,3-a]pyridin-3(2H)-one] | 8.7 nM
